Results published in PubChem BioAssay AID1259407 (Chemical Carcinogenesis Research Information System (CCRIS), 2018).
Calls of active or inactive are those of the source. How the calls were made is not given here.

Test system: CCRIS mutagenicity, Ames/micronucleus/aberration tests
Test: CCRIS mutagenicity studies
[1] = Test System: AMES SALMONELLA TYPHIMURIUM, Strain/Indicator: TA98, Metabolic Activation: NONE, Method: PREINCUBATION
[2] = Test System: AMES SALMONELLA TYPHIMURIUM, Strain/Indicator: TA100, Metabolic Activation: NONE, Method: PREINCUBATION

CCCCCCCCCCCCCCCCC1CO1 (stereo unspecified)
mutagenic call (Test System: AMES SALMONELLA TYPHIMURIUM, Strain/Indicator: TA97, Metabolic Activation: HAMSTER, LIVER, S-9, AROCLOR 1254 (10%), Method: PREINCUBATION): inactive; negative
mutagenic call (Test System: AMES SALMONELLA TYPHIMURIUM, Strain/Indicator: TA97, Metabolic Activation: HAMSTER, LIVER, S-9, AROCLOR 1254 (30%), Method: PREINCUBATION): inactive; negative
mutagenic call (Test System: AMES SALMONELLA TYPHIMURIUM, Strain/Indicator: TA97, Metabolic Activation: NONE, Method: PREINCUBATION): inactive; negative
mutagenic call (Test System: AMES SALMONELLA TYPHIMURIUM, Strain/Indicator: TA97, Metabolic Activation: RAT, LIVER, S-9, AROCLOR 1254 (10%), Method: PREINCUBATION): inactive; negative
mutagenic call (Test System: AMES SALMONELLA TYPHIMURIUM, Strain/Indicator: TA97, Metabolic Activation: RAT, LIVER, S-9, AROCLOR 1254 (30%), Method: PREINCUBATION): inactive; negative
mutagenic call (Test System: AMES SALMONELLA TYPHIMURIUM, Strain/Indicator: TA98, Metabolic Activation: HAMSTER, LIVER, S-9, AROCLOR 1254 (10%), Method: PREINCUBATION): inactive; negative
mutagenic call (Test System: AMES SALMONELLA TYPHIMURIUM, Strain/Indicator: TA98, Metabolic Activation: HAMSTER, LIVER, S-9, AROCLOR 1254 (30%), Method: PREINCUBATION): inactive; negative
mutagenic call [1]: inactive; negative
mutagenic call (Test System: AMES SALMONELLA TYPHIMURIUM, Strain/Indicator: TA98, Metabolic Activation: RAT, LIVER, S-9, AROCLOR 1254 (10%), Method: PREINCUBATION): inactive; negative
mutagenic call (Test System: AMES SALMONELLA TYPHIMURIUM, Strain/Indicator: TA98, Metabolic Activation: RAT, LIVER, S-9, AROCLOR 1254 (30%), Method: PREINCUBATION): inactive; negative
mutagenic call (Test System: AMES SALMONELLA TYPHIMURIUM, Strain/Indicator: TA100, Metabolic Activation: HAMSTER, LIVER, S-9, AROCLOR 1254 (10%), Method: PREINCUBATION): inactive; negative
mutagenic call (Test System: AMES SALMONELLA TYPHIMURIUM, Strain/Indicator: TA100, Metabolic Activation: HAMSTER, LIVER, S-9, AROCLOR 1254 (30%), Method: PREINCUBATION): inactive; negative
mutagenic call [2]: inactive; negative
mutagenic call (Test System: AMES SALMONELLA TYPHIMURIUM, Strain/Indicator: TA100, Metabolic Activation: RAT, LIVER, S-9, AROCLOR 1254 (10%), Method: PREINCUBATION): inactive; negative
mutagenic call (Test System: AMES SALMONELLA TYPHIMURIUM, Strain/Indicator: TA100, Metabolic Activation: RAT, LIVER, S-9, AROCLOR 1254 (30%), Method: PREINCUBATION): inactive; negative
mutagenic call (Test System: AMES SALMONELLA TYPHIMURIUM, Strain/Indicator: TA1535, Metabolic Activation: HAMSTER, LIVER, S-9, AROCLOR 1254 (10%), Method: PREINCUBATION): inactive; negative
mutagenic call (Test System: AMES SALMONELLA TYPHIMURIUM, Strain/Indicator: TA1535, Metabolic Activation: HAMSTER, LIVER, S-9, AROCLOR 1254 (30%), Method: PREINCUBATION): inactive; negative
mutagenic call (Test System: AMES SALMONELLA TYPHIMURIUM, Strain/Indicator: TA1535, Metabolic Activation: NONE, Method: PREINCUBATION): inactive; negative
mutagenic call (Test System: AMES SALMONELLA TYPHIMURIUM, Strain/Indicator: TA1535, Metabolic Activation: RAT, LIVER, S-9, AROCLOR 1254 (10%), Method: PREINCUBATION): inactive; negative
mutagenic call (Test System: AMES SALMONELLA TYPHIMURIUM, Strain/Indicator: TA1535, Metabolic Activation: RAT, LIVER, S-9, AROCLOR 1254 (30%), Method: PREINCUBATION): inactive; negative
mutagenic call (Test System: AMES SALMONELLA TYPHIMURIUM, Strain/Indicator: TA1537, Metabolic Activation: HAMSTER, LIVER, S-9, AROCLOR 1254 (10%), Method: PREINCUBATION): inactive; negative
mutagenic call (Test System: AMES SALMONELLA TYPHIMURIUM, Strain/Indicator: TA1537, Metabolic Activation: HAMSTER, LIVER, S-9, AROCLOR 1254 (30%), Method: PREINCUBATION): inactive; negative
mutagenic call (Test System: AMES SALMONELLA TYPHIMURIUM, Strain/Indicator: TA1537, Metabolic Activation: NONE, Method: PREINCUBATION): inactive; negative
mutagenic call (Test System: AMES SALMONELLA TYPHIMURIUM, Strain/Indicator: TA1537, Metabolic Activation: RAT, LIVER, S-9, AROCLOR 1254 (10%), Method: PREINCUBATION): inactive; negative
mutagenic call (Test System: AMES SALMONELLA TYPHIMURIUM, Strain/Indicator: TA1537, Metabolic Activation: RAT, LIVER, S-9, AROCLOR 1254 (30%), Method: PREINCUBATION): inactive; negative

CCCN(N)CCC
mutagenic call (Test System: AMES SALMONELLA TYPHIMURIUM, Strain/Indicator: TA100, Metabolic Activation: NONE, Method: PREINCUBATION (11 HR GROWTH PERIOD FOR BACTERIA)): active; positive
mutagenic call (Test System: AMES SALMONELLA TYPHIMURIUM, Strain/Indicator: TA100, Metabolic Activation: RAT, LIVER, S-9, PCB, Method: PREINCUBATION (11 HR GROWTH PERIOD FOR BACTERIA)): inactive; negative
mutagenic call (Test System: AMES SALMONELLA TYPHIMURIUM, Strain/Indicator: TA102, Metabolic Activation: NONE, Method: PREINCUBATION (5 OR 7 HR GROWTH PERIOD FOR BACTERIA)): active; positive
mutagenic call (Test System: AMES SALMONELLA TYPHIMURIUM, Strain/Indicator: TA102, Metabolic Activation: RAT, LIVER, S-9, PCB, Method: PREINCUBATION (5 OR 7 HR GROWTH PERIOD FOR BACTERIA)): inactive; negative

CC(C(=O)O)c1ccc2c(c1)[nH]c1ccc(Cl)cc12 (stereo unspecified)
mutagenic call (Test System: AMES SALMONELLA TYPHIMURIUM, Strain/Indicator: TA98, Metabolic Activation: RAT, LIVER, S-9, PCB, Method: STANDARD PLATE): inactive; negative
mutagenic call (Test System: AMES SALMONELLA TYPHIMURIUM, Strain/Indicator: TA100, Metabolic Activation: RAT, LIVER, S-9, PCB, Method: STANDARD PLATE): inactive; negative
mutagenic call (Test System: AMES SALMONELLA TYPHIMURIUM, Strain/Indicator: TA1537, Metabolic Activation: RAT, LIVER, S-9, PCB, Method: STANDARD PLATE): inactive; negative
mutagenic call (Test System: AMES SALMONELLA TYPHIMURIUM, Strain/Indicator: TA1538, Metabolic Activation: RAT, LIVER, S-9, PCB, Method: STANDARD PLATE): inactive; negative
mutagenic call (Test System: E. COLI, Strain/Indicator: WP2 UVRA, Metabolic Activation: RAT, LIVER, S-9, PCB, Method: STANDARD PLATE): inactive; negative

c1ccc([C@H]2CO2)cc1
mutagenic call (Test System: AMES SALMONELLA TYPHIMURIUM, Strain/Indicator: TA100, Metabolic Activation: NONE): active; positive
mutagenic call (Test System: AMES SALMONELLA TYPHIMURIUM, Strain/Indicator: TA100, Metabolic Activation: NONE, Method: STANDARD PLATE): active; positive

C=CC1=C(C)C(/C=c2/[nH]/c(=C\c3[nH]c(/C=C4\NC(=O)C(C)=C4C=C)c(C)c3CCC(=O)O)c(CCC(=O)O)c2C)=NC1=O
mutagenic call (Test System: Ames Salmonella typhimurium, Strain/Indicator: TA98, Metabolic Activation: Liver, S-9, Method: Preincubation): inactive; negative
mutagenic call (Test System: Ames Salmonella typhimurium, Strain/Indicator: TA100, Metabolic Activation: Liver, S-9, Method: Preincubation): inactive; negative
mutagenic call (Test System: Ames Salmonella typhimurium, Strain/Indicator: TA100, Metabolic Activation: None, Method: Preincubation): inactive; negative
mutagenic call (Test System: Ames Salmonella typhimurium, Strain/Indicator: TA102, Metabolic Activation: Liver, S-9, Method: Preincubation): inactive; negative
mutagenic call (Test System: Ames Salmonella typhimurium, Strain/Indicator: TA102, Metabolic Activation: None, Method: Preincubation): inactive; negative

c1ccc2c(c1)-c1cccc3c1c-2cc1c2ccccc2ccc31
mutagenic call (Test System: HUMAN H1A1V2 CELLS, Strain/Indicator: TK LOCUS, Metabolic Activation: NONE, Method: SUSPENSION/PLATE): inactive; negative

CCC[CH2][Sn]([Cl])([Cl])[Cl]
mutagenic call (Test System: AMES SALMONELLA TYPHIMURIUM, Strain/Indicator: TA98, Metabolic Activation: NONE, Method: SUSPENSION/PLATE): inactive; negative
mutagenic call (Test System: AMES SALMONELLA TYPHIMURIUM, Strain/Indicator: TA100, Metabolic Activation: NONE, Method: SUSPENSION/PLATE): inactive; negative

Cc1c2c3c(cccc3c3ccccc13)-c1ccccc1-2
mutagenic call (Test System: AMES SALMONELLA TYPHIMURIUM, Strain/Indicator: TA100, Metabolic Activation: RAT, LIVER, S-9, AROCLOR 1254): active; positive

CC(=O)Nc1ccc(/C=C/c2ccccc2)cc1
mutagenic call (Test System: CHINESE HAMSTER OVARY, Strain/Indicator: AS52/6-THIOGUANINE, Metabolic Activation: NONE): inactive; negative
mutagenic call (Test System: CHINESE HAMSTER OVARY, Strain/Indicator: AS52/6-THIOGUANINE, Metabolic Activation: RAT LIVER S-9, 2-ACETYLAMINOFLUORENE): active; positive

COc1c(C=O)c(O)cc2c1C(=O)c1ccccc1C2=O
mutagenic call [1]: inactive; negative
mutagenic call (Test System: AMES SALMONELLA TYPHIMURIUM, Strain/Indicator: TA98, Metabolic Activation: RAT, LIVER, S-9, PCB, Method: PREINCUBATION): inactive; negative
mutagenic call [2]: inactive; negative
mutagenic call (Test System: AMES SALMONELLA TYPHIMURIUM, Strain/Indicator: TA100, Metabolic Activation: RAT, LIVER, S-9, PCB, Method: PREINCUBATION): inactive; negative
